Values joined by “and” are separate entries in the source; they are usually repeats but may differ in a detail not shown here. Equal entries are not always repeated. Structures can show the parent of a compound that is named as a salt.
SMILES | melting point
O=C1COC(C#Cc2ccccc2)(C(F)(F)F)c2cc(Cl)ccc2N1 (centres unmarked) (as salt: sodium) [Example 16, 7-Chloro-5-phenylethynyl-1,5-dihydro-5-(trifluoromethyl)-4,1-benzoxazepin-2(3H)-one] | 190 to 191 °C
CC[C@@H]1O[C@](C#Cc2ccoc2)(C(F)(F)F)c2cc(Cl)ccc2NC1=O (relative stereo) (as salt: sodium) [Example 32, rel-(3S,5S)-7-Chloro-5-(3-furanylethynyl)-1,5-dihydro-3-ethyl-5-(trifluoromethyl)-4,1-benzoxazepin-2(3H)-one] | 169 to 170 °C
C[C@@H]1O[C@](/C=C/C2CC2)(C(F)(F)F)c2cc(Cl)ccc2NC1=O (relative stereo) [Example 6, rel-(3S,5S)-trans-7-Chloro-5-(2-cyclopropylethenyl)-1,5-dihydro-3-methyl-5-(trifluoromethyl)-4,1-benzoxazepin-2(3H)-one] | 171 to 172 °C
C[C@@H]1O[C@](/C=C/c2ccco2)(C(F)(F)F)c2cc(Cl)ccc2NC1=O (relative stereo) [Example 9, rel-(3S,5S)-trans-7-Chloro-1,5-dihydro-5-(2-furan-2-ylethenyl)-3-methyl-5-(trifluoromethyl)-4,1-benzoxazepin-2(3H)-one] | 205 to 206.5 °C
CCC[C@@H]1O[C@](C#CC2CC2)(C(F)(F)F)c2cc(Cl)ccc2NC1=O (relative stereo) [Example 14a, rel-(3S,5S)-7-Chloro-5-cyclopropylethynyl-1,5-dihydro-3-propyl-5-(trifluoromethyl)-4,1-benzoxazepin-2(3H)-one] | 191 to 192 °C
CCC[C@H]1O[C@](C#CC2CC2)(C(F)(F)F)c2cc(Cl)ccc2NC1=O (relative stereo) [Example 14b, rel-(3R,5S)-7-Chloro-5-cyclopropylethynyl-1,5-dihydro-3-propyl-5-(trifluoromethyl)-4,1-benzoxazepin-2(3H)-one] | 141 °C
CC(C)[C@@H]1O[C@](C#CC2CC2)(C(F)(F)F)c2cc(Cl)ccc2NC1=O (relative stereo) [Example 15, rel-(3S,5S)-7-Chloro-5-cyclopropylethynyl-1,5-dihydro-3-isopropyl-5-(trifluoromethyl)-4,1-benzoxazepin-2(3H)-one] | 167 °C
CC[C@@H]1O[C@](C#CC2CC2)(C(F)(F)F)c2cc(Cl)ccc2NC1=O (relative stereo) [Example 22, rel-(3S,5S)-7-Chloro-5-cyclopropylethynyl-1,5-dihydro-3-ethyl-5-(trifluoromethyl)-4,1-benzoxazepin-2(3H)-one] | 180 to 181 °C
CC[C@H]1O[C@](C#CC2CC2)(C(F)(F)F)c2cc(Cl)ccc2NC1=O (relative stereo) [Example 23, rel-(3R,5S)-7-Chloro-5-cyclopropylethynyl-1,5-dihydro-3-ethyl-5-(trifluoromethyl)-4,1-benzoxazepin-2(3H)-one] | 129 to 130 °C
CCC[C@@H]1O[C@](/C=C/C2CC2)(C(F)(F)F)c2cc(Cl)ccc2NC1=O (relative stereo) [Example 30, rel-(3S,5S)-trans-7-Chloro-5-(2-cyclopropylethenyl)-1,5-dihydro-3-propyl-5-(trifluoromethyl)-4,1-benzoxazepin-2(3H)-one] | 165 to 167 °C and 167 °C
CC[C@@H]1O[C@](/C=C/C2CC2)(C(F)(F)F)c2cc(Cl)ccc2NC1=O (relative stereo) [Example 38, rel-(3S,5S)-trans-7-Chloro-5-(2-cyclopropylethenyl)-1,5-dihydro-3-ethyl-5-(trifluoromethyl)-4,1-benzoxazepin-2(3H)-one] | 147 to 147.5 °C
C=C[C@@H]1O[C@](/C=C/C2CC2)(C(F)(F)F)c2cc(Cl)ccc2NC1=O (relative stereo) [Example 42, rel-(3S,5S)-trans-7-Chloro-5-(2-cyclopropylethenyl)-1,5-dihydro-3-ethenyl-5-(trifluoromethyl)-4,1-benzoxazepin-2(3H)-one] | 165.5 to 166.5 °C
O=C1Nc2ccc(Cl)cc2[C@@](/C=C/C2CC2)(C(F)(F)F)O[C@H]1C1CC1 (relative stereo) [Example 44, rel-(3S,5S)-trans-7-Chloro-5-(2-cyclopropylethenyl)-1,5-dihydro-3-cyclopropyl-5-(trifluoromethyl)-4,1-benzoxazepin-2(3H)-one] | 143 to 144 °C
C=C[C@@H]1O[C@](C#CC2CC2)(C(F)(F)F)c2c(ccc(F)c2F)NC1=O (relative stereo) [Example 45, rel-(3S,5S)-6,7-Difluoro-5-(2-cyclopropylethynyl)-1,5-dihydro-3-ethenyl-5-(trifluoromethyl)-4,1-benzoxazepin-2(3H)-one] | 171 to 172 °C
O=C1Nc2ccc(F)c(F)c2[C@@](C#CC2CC2)(C(F)(F)F)O[C@H]1C1CC1 (relative stereo) [Example 46, rel-(3S,5S)-6,7-Difluoro-5-(2-cyclopropylethynyl)-1,5-dihydro-3-cyclopropyl-5-(trifluoromethyl)-4,1-benzoxazepin-2(3H)-one] | 222 to 222.5 °C
C[C@@H]1O[C@](C#CC2CC2)(C(F)(F)F)c2cc(F)ccc2NC1=O (relative stereo) [Example 48, rel-(3S,5S)-7-Fluoro-5-(2-cyclopropylethynyl)-1,5-dihydro-3-methyl-5-(trifluoromethyl)-4,1-benzoxazepin-2(3H)-one] | 184 to 185 °C

SMILES | melting point
CC[C@@H]1O[C@](C#CC2CC2)(C(F)(F)F)c2cc(F)ccc2NC1=O (relative stereo) [Example 49, rel-(3S,5S)-7-Fluoro-5-(2-cyclopropylethynyl)-1,5-dihydro-3-ethyl-5-(trifluoromethyl)-4,1-benzoxazepin-2(3H)-one] | 186 °C
C[C@@H]1O[C@](/C=C/C2CC2)(C(F)(F)F)c2cc(F)ccc2NC1=O (relative stereo) [Example 50, rel-(3S,5S)-trans-7-Fluoro-5-(2-cyclopropylethenyl)-1,5-dihydro-3-methyl-5-(trifluoromethyl)-4,1-benzoxazepin-2(3H)-one] | 180 to 182 °C
CC[C@@H]1O[C@](/C=C/C2CC2)(C(F)(F)F)c2cc(F)ccc2NC1=O (relative stereo) [Example 51, rel-(3S,5S)-trans-7-Fluoro-5-(2-cyclopropylethenyl)-1,5-dihydro-3-ethyl-5-(trifluoromethyl)-4,1-benzoxazepin-2(3H)-one] | 148 to 149 °C
C[C@@H]1O[C@](C#CC2CC2)(C(F)(F)F)c2c(ccc3c2OCO3)NC1=O (relative stereo) [Example 52, rel-(3S,5S)-6,7-Methylenedioxy-5-(2-cyclopropylethynyl)-1,5-dihydro-3-methyl-5-(trifluoromethyl)-4,1-benzoxazepin-2(3H)-one] | 252 °C
CC[C@@H]1O[C@](C#CC2CC2)(C(F)(F)F)c2c(ccc3c2OCO3)NC1=O (relative stereo) [Example 53, rel-(3S,5S)-6,7-Methylenedioxy-5-(2-cyclopropylethynyl)-1,5-dihydro-3-ethyl-5-(trifluoromethyl)-4,1-benzoxazepin-2(3H)-one] | 201 to 202 °C
C[C@@H]1O[C@](/C=C/C2CC2)(C(F)(F)F)c2c(ccc3c2OCO3)NC1=O (relative stereo) [Example 54, rel-(3S,5S)-trans-6,7-Methylenedioxy-5-(2-cyclopropylethenyl)-1,5-dihydro-3-methyl-5-(trifluoromethyl)-4,1-benzoxazepin-2(3H)-one] | 236 to 237 °C
CC[C@@H]1O[C@](/C=C/C2CC2)(C(F)(F)F)c2c(ccc3c2OCO3)NC1=O (relative stereo) [Example 55, rel-(3S,5S)-trans-6,7-Methylenedioxy-5-(2-cyclopropylethenyl)-1,5-dihydro-3-ethyl-5-(trifluoromethyl)-4,1-benzoxazepin-2(3H)-one] | 188 to 190 °C
CC(C)C#C[C@]1(C(F)(F)F)OCC(=O)Nc2ccc(Cl)cc21 (single isomer, unassigned) [Example 4] | 135 to 136 °C
CCC#CC1(C(F)(F)F)OCC(=O)Nc2ccc(Cl)cc21 (centres unmarked) [Example 1, 5-(1-Butynyl)-7-chloro-1,5-dihydro-5-(trifluoromethyl)-4,1-benzoxazepin-2(3H)-one] | 167 to 168 °C
CCC#CC1(C(F)(F)F)OC(c2ccccc2)C(=O)Nc2ccc(Cl)cc21 [Example 2, rel-(3S,5S)-5-(1-Butynyl)-7-chloro-1,5-dihydro-3-phenyl-5-(trifluormethyl)-4,1-benzoxazepin-2(3H)-one] | 198 to 199 °C
CC(C)C#CC1(C(F)(F)F)OCC(=O)Nc2ccc(Cl)cc21 (centres unmarked) [Example 3, 7-Chloro-1,5-dihydro-5-(isopropylethynyl)-5-(trifluoromethyl)-4,1-benzoxazepin-2(3H)-one] | 183 to 183.5 °C
O=C1COC(/C=C/C2CC2)(C(F)(F)F)c2cc(Cl)ccc2N1 (stereo not drawn) [Example 5, trans-7-Chloro-5-(2-cyclopropylethenyl)-1,5-dihydro-5-(trifluoromethyl)-4,1-benzoxazepin-2(3H)-one] | 157 to 158 °C
CC(C)C#CC1(C(F)(F)F)OCC(=O)Nc2ccc(F)cc21 (centres unmarked) [Example 7, 1,5-Dihydro-7-fluoro-5-isopropylethynyl-5-(trifluoromethyl)-4,1-benzoxazepin-2(3H)-one] | 172 to 173 °C
O=C1COC(/C=C/c2ccco2)(C(F)(F)F)c2cc(Cl)ccc2N1 (stereo not drawn) [Example 10, trans-7-Chloro-1,5-dihydro-5-(2-furan-2-yl)ethenyl-5-(trifluoromethyl)-4,1-benzoxazepin-2(3H)-one] | 199 to 200 °C
CC(C)C#CC1(C(F)(F)F)OCC(=O)Nc2ccc(F)c(F)c21 (centres unmarked) [Example 13, 6,7-Difluoro-1,5-dihydro-5-(isopropylethynyl)-5-(trifluoromethyl)-4,1-benzoxazepin-2(3H)-one] | 192.5 to 193.5 °C
O=C1COC(C#CC2CC2)(C(F)(F)F)c2cc(Cl)ccc2N1 (centres unmarked) [Example 18, 7-Chloro-5-cyclopropylethynyl-1,5-dihydro-5-(trifluoromethyl)-4,1-benzoxazepin-2(3H)-one] | 199.5 to 200.5 °C

— patent US6489320B1, “5, 5-disubstituted-1, 5-dihydro-4, 1-benzoxazepin-2 (3H)-ones useful as HIV reverse transcriptase inhibitors” (Bristol-Myers Squibb Pharma Company, priority 1997, dated 2002)
